Source: article PMC5343874, “High Specific Selectivity and Membrane-Active Mechanism of Synthetic Cationic Hybrid Antimicrobial Peptides Based on the Peptide FV7” (International Journal of Molecular Sciences, 2017)
No end group written: not given here.

What was measured:
[1] = tested on: E. coli ATCC 25922; assay type: cell-based, Escherichia coli
Description: (§1) Minimum inhibitory concentration (MIC) was determined using the modified standard microtiter dilution method as described previously. The bacteria were incubated overnight at 37 °C, […] at 220 rpm and transferred to new nutrient broth (MHB) until the logarithmic phase of growth. The bacteria were then diluted into 10^5 colony forming units (10^5 CFU/mL) in MHB. The peptides were dissolved and diluted in 0.01% acetic acid and 0.2% bovine serum albumin (BSA). Briefly, serial diluted (0.5–128 µM) peptides were added to sterile 96-well plates in a 50-μL volume of bacteria in MHB mixed with 50 µL. […] The results are expressed as an average of the MICs at least three times.
(§2) E. coli ATCC 25,922, S. typhimurium ATCC 7731, S. typhimurium ATCC 14028, P. aeruginosa ATCC 27853, B. subtilis CMCC 63501, S. aureus ATCC 29213, S. epidermidis ATCC 12228 and E. faecalis ATCC 29212 were obtained from the College of Veterinary Medicine, Northeast Agricultural University (Harbin, China). E. coli UB1005 was kindly provided by Qingsheng Qi (State Key Laboratory of Microbial Technology, Shandong University, Jinan, China). P. Aeruginosa PAO1 was kindly provided by Wengong Yu (State Key Laboratory of School of Medicine and Pharmacy, Ocean University of China, Qingdao, China).

[2] = tested on: E. coli UB 1005; assay type: cell-based, Escherichia coli
Description: as §1, §2

[3] = tested on: P. aeruginosa ATCC 27853; assay type: cell-based, Pseudomonas aeruginosa
Description: as §1, §2

[4] = tested on: P. aeruginosa PAO1; assay type: cell-based, Pseudomonas aeruginosa
Description: as §1, §2

[5] = tested on: S. typhimurium ATCC 14028; assay type: cell-based, Salmonella typhimurium
Description: as §1, §2

[6] = tested on: S. typhimurium ATCC 7731; assay type: cell-based, Salmonella typhimurium
Description: as §1, §2

[7] = tested on: S. aureus ATCC 29213; assay type: cell-based, Staphylococcus aureus
Description: as §1, §2

[8] = tested on: S. faecalis ATCC 29212; assay type: cell-based
Description: as §1, §2

[9] = tested on: B. subtilis CMCC 63501; assay type: cell-based, Bacillus subtilis
Description: as §1, §2

[10] = tested on: S. epidermidis ATCC12228; assay type: cell-based, Staphylococcus epidermidis
Description: as §1, §2

[11] = tested on: Gram-negative and Gram-positive bacteria; assay: MIC across the bacterial panel; assay type: cell-based
Description: as §1, §2

[12] = tested on: human red blood cells (hRBC); assay: Hemolytic activity; assay type: cell-based; conditions: 37 °C; for concentration causing 5% hemolysis (minimal hemolytic concentration, MHC): fresh human erythrocytes in PBS pH 7.4, 1 h, absorbance 570 nm, maximal concentration 128 µM, averages of three independent experiments
Description: The hemolytic activity of the peptides was evaluated by measuring the amount of released hemoglobin by the lysis of erythrocytes. The measurement was as previously described. Human red blood cells (hRBC) were obtained from healthy donors by the ethics committee of the Northeast Agricultural University Hospital. The fresh blood cells were washed 2–3 times in PBS (pH 7.4) and centrifuged at 1000× g for 5 min at 4 °C, then resuspended in PBS. Briefly, 50 μL of hRBC solution was incubated with 50 μL of different concentrations of each peptide dissolved in PBS in a 96-well microtiter plate. After incubation for 1 h at 37 °C, the mixtures were centrifuged at 1000× g for 5 min at 4 °C and then the supernatant was transferred to another 96-well microtiter plate. The release of hemoglobin was monitored by measurement of the absorbance at 570 nm using a multimode microplate reader (SpectraMax M5, Molecular Devices, San Francisco, CA, USA). The concentration causing 5% hemolysis was defined as the minimal hemolytic concentration (MHC). The control samples for 0% and 100% hemolysis consisted of hRBC in PBS (Ablank) only and in 0.1% Triton X-100 (Atriton), respectively. The percent hemolysis was calculated according to the following equation: % Hemolysis = [(Asample − Ablank)/(Atriton − Ablank)] × 100

[13] = tested on: E. coli ATCC 25922; assay: Salt and heat sensitivity (MIC); assay type: cell-based, Escherichia coli; set-up: key to MIC, Control / MIC, NaCl / MIC, KCl / MIC, NH4Cl / MIC, MgCl2 / MIC, ZnCl2 / MIC, FeCl3 / MIC, CaCl2 / MIC, Mix: MIC in µM (peptide serial dilutions 0.5–128 µM); MIC, Heat (100 °C): unit not given beside the values; conditions: for MIC, MgCl2: 1 mM MgCl2; for MIC, CaCl2: 2.5 mM CaCl2; for MIC, FeCl3: 4 mM FeCl3; for MIC, KCl: 4.5 mM KCl; for MIC, NH4Cl: 6 mM NH4Cl; for MIC, ZnCl2: 8 mM ZnCl2; for MIC, NaCl: 150 mM NaCl; for MIC, Control: absence of physiological salts; for MIC, Mix: mixture medium with all salts in physiological concentrations; for MIC, Heat (100 °C): peptide incubated at 100 °C for 1 h
Description: as §1
(§3) The incubation to test for thermal stability occurred at 100 °C for 1 h. After these treatments, the procedures were the same as described above for the MIC assay.

[14] = tested on: S. aureus ATCC 29213; assay: Salt and heat sensitivity (MIC); assay type: cell-based, Staphylococcus aureus; set-up: key to MIC, FeCl3 / MIC, Mix / MIC, Control / MIC, NaCl / MIC, KCl / MIC, NH4Cl / MIC, MgCl2 / MIC, ZnCl2 / MIC, CaCl2: MIC in µM (peptide serial dilutions 0.5–128 µM); MIC, Heat (100 °C): unit not given beside the values; conditions: for MIC, FeCl3: 4 mM FeCl3; for MIC, Mix: mixture medium with all salts in physiological concentrations; for MIC, Heat (100 °C): peptide incubated at 100 °C for 1 h
Description: as §1, §3

[15] = tested on: E. coli UB1005 inner membrane; assay: Inner membrane permeability (ONPG hydrolysis); assay type: cell-based, Escherichia coli; conditions: 1× MIC, absorbance 420 nm, 0–30 min
Description: The inner membrane permeability activity against E. coli bacteria was determined by the uptake of ONPG. E. coli UB 1005 cells were cultured to mid-log phase in MHB medium containing 2% lactose at 37 °C, and harvested by centrifugation at 3000× g for 5 min. After washing twice, the cells were diluted to an OD600 of 0.05 with buffer (10 mM PBS, pH 7.4) containing 1.5 mM ONPG. […] The value of OD reflected the ONPG flowing into the cells was measured at 420 nm from 0 to 30 min every two min.

AKKFGKAFVGEIM-NH2 [MA] gave an MIC [1] of 32 µM, an MIC [2] greater than 64 µM and an MIC [3] greater than 64 µM. It also gave an MIC [4] greater than 64 µM, an MIC [5] greater than 64 µM and an MIC [6] greater than 64 µM. It also gave an MIC [7] greater than 64 µM, an MIC [8] greater than 64 µM and an MIC [9] greater than 64 µM. For the same compound, the MIC [10] was greater than 64 µM and the minimum inhibitory concentration [11] was “greater than 64 μM”.

Work on FRIRVRVAKKFGKAFVGEIM-NH2 [FV-MA] yielded an MIC [1] of 8 µM, an MIC [2] of 8 µM and an MIC [3] of 8 µM. The MIC [4] was 2 µM, the MIC [5] was 4 µM and the MIC [6] was 4 µM. It also gave an MIC [7] of 8 µM, an MIC [8] of 16 µM and an MIC [9] of 4 µM. For the same compound, the MIC [10] was 8 µM and the “hemolytic activity (in words)” value ([12]; human erythrocytes, 1 h, up to 128 µM) was “higher hemolytic activity at each concentration when compared to FV7”.

FRIRVRVFKRIVQRIKDFLR-NH2 [FV-LL] showed an MIC [1] of 1 µM, an MIC [2] of 4 µM and an MIC [3] of 4 µM. For the same compound, the MIC [4] was 2 µM, the MIC [5] was 2 µM and the MIC [6] was 2 µM. It also gave an MIC [7] of 2 µM, an MIC [8] of 4 µM and an MIC [9] of 4 µM. The MIC [10] was 1 µM and the “concentration causing 5% hemolysis (minimal hemolytic concentration, MHC)” value (“concentration causing 5% hemolysis” for short) [12] was greater than 128 µM.

Compound FRIRVRV-NH2 [FV7] has an MIC [1] of 16 µM, an MIC [2] of 32 µM and an MIC [3] of 16 µM. For the same compound, the MIC [4] was 32 µM, the MIC [5] was 16 µM and the MIC [6] was 32 µM. The MIC [7] was 64 µM, the MIC [8] was 32 µM and the MIC [9] was 16 µM. The MIC [10] was 32 µM, the hemolysis ([12]; at 128 µM, human erythrocytes, 1 h) was “approximately 15%” and the “concentration causing 5% hemolysis” value [12] was 4 µM.

For `CC[C@H](C)[C@H](NC(=O)CN)C(=O)NCC(=O)N[C@@H](C)C(=O)N[C@H](C(=O)N[C@@H](CC(C)C)C(=O)N[C@@H](CCCCN)C(=O)N[C@H](C(=O)N[C@@H](CC(C)C)C(=O)N[C@H](C(=O)N[C@H](C(=O)NCC(=O)N[C@@H](CC(C)C)C(=O)N1CCC[C@H]1C(=O)N[C@@H](C)C(=O)N[C@@H](CC(C)C)C(=O)N[C@H](C(=O)N[C@@H](CO)C(=O)N[C@@H](Cc1c[nH]c2ccccc12)C(=O)N[C@H](C(=O)N[C@@H](CCCCN)C(=O)N[C@@H](CCCNC(=N)N)C(=O)N[C@@H](CCCCN)C(=O)N[C@@H](CCCNC(=N)N)C(=O)N[C@@H](CCC(N)=O)C(=O)N[C@@H](CCC(N)=O)C(N)=O)[C@@H](C)CC)[C@@H](C)CC)[C@@H](C)O)[C@@H](C)O)C(C)C)C(C)C` [ME26, melittin], the “MIC, MgCl2” value [13] was 4, the “MIC, CaCl2” value [13] was 2 and the “MIC, FeCl3” value [13] was 2. For the same compound, the “MIC, KCl” value [13] was 2, the “MIC, NH4Cl” value [13] was 2 and the “MIC, ZnCl2” value [13] was 4. For the same compound, the “MIC, NaCl” value [13] was 4, the “MIC, Control” value [13] was 2 and the “MIC, Mix” value [13] was 4. The “MIC, Heat (100 °C)” value [13] was 2, the “MIC, MgCl2” value ([14]; 1 mM MgCl2) was 2 and the “MIC, CaCl2” value ([14]; 2.5 mM CaCl2) was 4. The “MIC, FeCl3” value [14] was 2, the “MIC, KCl” value ([14]; 4.5 mM KCl) was 4 and the “MIC, NH4Cl” value ([14]; 6 mM NH4Cl) was 2. For the same compound, the “MIC, ZnCl2” value ([14]; 8 mM ZnCl2) was 2, the “MIC, NaCl” value ([14]; 150 mM NaCl) was 4 and the “MIC, Control” value ([14]; absence of physiological salts) was 8. For the same compound, the “MIC, Mix” value [14] was 4, the “MIC, Heat (100 °C)” value [14] was 8 and the “concentration giving complete hemolysis” value ([12]; human erythrocytes, 1 h) was “greater than 4 µM”. For the same compound, the “inner membrane permeability (ONPG hydrolysis, in words)” value [15] was “highest ability for inner membrane permeability”.

Work on FKRIVQRIKDFLR-NH2 [LL] yielded an MIC [1] of 16 µM, an MIC [2] of 16 µM and an MIC [3] of 8 µM. For the same compound, the MIC [4] was 16 µM, the MIC [5] was 32 µM and the MIC [6] was 16 µM. For the same compound, the MIC [7] was 16 µM, the MIC [8] was 32 µM and the MIC [9] was 16 µM. The MIC [10] was 8 µM.

FRIRVRVKWKLFKKI-NH2 [FV-CE] gave an MIC [1] of 2 µM, an MIC [2] of 2 µM and an MIC [3] of 2 µM. For the same compound, the MIC [4] was 2 µM, the MIC [5] was 4 µM and the MIC [6] was 4 µM. The MIC [7] was 8 µM, the MIC [8] was 1 µM and the MIC [9] was 1 µM. For the same compound, the MIC [10] was 0.5 µM, the “MIC, MgCl2” value [13] was 2 and the “MIC, CaCl2” value [13] was 2. The “MIC, FeCl3” value [13] was 4, the “MIC, KCl” value [13] was 2 and the “MIC, NH4Cl” value [13] was 2. For the same compound, the “MIC, ZnCl2” value [13] was 2, the “MIC, NaCl” value [13] was 2 and the “MIC, Control” value [13] was 2. The “MIC, Mix” value [13] was 2, the “MIC, Heat (100 °C)” value [13] was 2 and the “MIC, FeCl3” value [14] was 4. The “MIC, Mix” value [14] was 4, the “MIC, Heat (100 °C)” value [14] was 4 and the “concentration causing 5% hemolysis” value [12] was greater than 128 µM.

KWKLFKKI-NH2 [CE] was tested, and the MIC [1] was 64 µM, the MIC [2] was greater than 64 µM and the MIC [3] was greater than 64 µM. It also gave an MIC [4] greater than 64 µM, an MIC [5] greater than 64 µM and an MIC [6] greater than 64 µM. For the same compound, the MIC [7] was greater than 64 µM, the MIC [8] was greater than 64 µM and the MIC [9] was greater than 64 µM. For the same compound, the MIC [10] was greater than 64 µM and the minimum inhibitory concentration [11] was “greater than 64 μM”.
